Experimental data taken from paper PMC12175894 (Science Advances, 2025).
Substitutions are numbered along the chain they refer to. Where two headings read alike, the source gives them in different places.

How the values were obtained:
5-HT1AR Y96^2.64A [1] = molecular target: T1, 5-HT1AR Y96^2.64A (Homo sapiens, UniProt P08908, Y96A); assay: Radioligand competition, displacement of [3H]WAY100635; format: binding; conditions: for decrease of affinity when Y96^2.64 and Q97^2.65 were replaced by alanine: Y96A and Q97A mutants vs WT
T1 sequence (P08908 1-422 Y96A): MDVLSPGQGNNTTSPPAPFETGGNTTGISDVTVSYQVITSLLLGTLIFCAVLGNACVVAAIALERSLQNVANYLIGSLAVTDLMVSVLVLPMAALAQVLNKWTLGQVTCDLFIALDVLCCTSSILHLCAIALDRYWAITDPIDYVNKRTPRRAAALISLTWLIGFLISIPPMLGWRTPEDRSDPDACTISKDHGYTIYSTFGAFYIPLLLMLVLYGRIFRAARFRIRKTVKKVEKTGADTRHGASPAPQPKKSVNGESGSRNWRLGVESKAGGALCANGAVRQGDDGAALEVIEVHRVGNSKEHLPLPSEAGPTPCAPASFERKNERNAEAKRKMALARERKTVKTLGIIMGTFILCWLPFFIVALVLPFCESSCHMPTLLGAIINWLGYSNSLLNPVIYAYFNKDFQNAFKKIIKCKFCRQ

male C56BL/6 mice [2] = assay: CFA-induced inflammatory pain model; format: in vivo, mouse
5-HT1AR wildtype [3] = molecular target: T2, 5-HT1AR wildtype (Homo sapiens, UniProt P08908); assay: GloSensor inhibition of cAMP accumulation in HEK293AΔGs; format: cell-based
T2 construct: host or cells: HEK293T, HEK293A, HEK293AΔGs, HEK293AΔGi/o, HEK293AΔARRB1/B2
T2 sequence (P08908 1-422): T1 sequence (P08908 1-422 Y96A) with A96Y

5-HT6R = molecular target: T3, 5-HT6R (Homo sapiens, UniProt P50406); assay: Radioligand competition, displacement of [3H]LSD; format: binding
T3 construct: host or cells: HEK293T, transient; membranes
T3 sequence (P50406 whole entry): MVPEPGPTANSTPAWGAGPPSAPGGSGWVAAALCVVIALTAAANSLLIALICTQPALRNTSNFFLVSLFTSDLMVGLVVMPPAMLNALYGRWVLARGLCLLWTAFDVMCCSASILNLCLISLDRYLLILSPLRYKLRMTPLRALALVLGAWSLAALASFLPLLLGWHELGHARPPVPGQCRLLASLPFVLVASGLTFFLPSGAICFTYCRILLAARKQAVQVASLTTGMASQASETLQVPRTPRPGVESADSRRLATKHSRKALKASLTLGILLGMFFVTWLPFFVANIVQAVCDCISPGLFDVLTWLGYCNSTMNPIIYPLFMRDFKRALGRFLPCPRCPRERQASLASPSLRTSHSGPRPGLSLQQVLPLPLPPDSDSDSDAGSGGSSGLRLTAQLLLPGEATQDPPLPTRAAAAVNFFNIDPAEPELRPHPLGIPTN

5-HT1AR Q97^2.65A = molecular target: T4, 5-HT1AR Q97^2.65A (Homo sapiens, UniProt P08908, Q97A); assay: GloSensor inhibition of cAMP accumulation in HEK293AΔGs; format: cell-based; conditions: for Emax: read-out: Emax [% ± SEM], inhibition of cAMP accumulation
T4 sequence (P08908 1-422 Q97A): T1 sequence (P08908 1-422 Y96A) with A96Y, Q97A

5-HT1AR F112^3.28W = molecular target: T5, 5-HT1AR F112^3.28W (Homo sapiens, UniProt P08908, F112W); assay: as above; format: cell-based; conditions: for Emax: read-out: Emax [% ± SEM], inhibition of cAMP accumulation
T5 sequence (P08908 1-422 F112W): T1 sequence (P08908 1-422 Y96A) with A96Y, F112W

5-HT1AR wildtype [4] = molecular target: T2, 5-HT1AR wildtype; assay: GloSensor cAMP assay in HEK293A cells; format: cell-based
male C56BL/6 mice [5] = assay: SNI model of neuropathic pain; format: in vivo, mouse
5-HT1AR Y96^2.64A [6] = molecular target: T1, 5-HT1AR Y96^2.64A; assay: GloSensor cAMP accumulation in HEK293AΔGi/o; format: cell-based; conditions: read-out: Emax [% ± SEM], cAMP accumulation
male C56BL/6 mice [7] = assay: Accelerating rotarod; format: in vivo, mouse
5-HT1AR Y96^2.64A [8] = molecular target: T1, 5-HT1AR Y96^2.64A; assay: GloSensor inhibition of cAMP accumulation in HEK293AΔGs; format: cell-based; conditions: for Emax: read-out: Emax [% ± SEM], inhibition of cAMP accumulation

Compound: COc1ccccc1OCCNCCCOc1ccc2c(c1)NC(=O)CO2 [ST171]
- Ki (5-HT1AR Y96^2.64A [1]; 5-HT1AR Y96A, HEK 293T membranes, read-out: Ki [nM ± SEM]): 63 nM
- decrease of affinity when Y96^2.64 and Q97^2.65 were replaced by alanine (5-HT1AR Y96^2.64A [1]): more than 150 fold
- mechanical thresholds of the injured hind paw, CFA model (male C56BL/6 mice [2]; 10 mg/kg intraperitoneal): significantly increased the mechanical thresholds
- EC50 (5-HT1AR wildtype [3]; HEK293AΔGs, wildtype, read-out: EC50 [nM ± SEM], inhibition of cAMP accumulation): 5.3 ± 0.8 nM
- Emax [% ± SEM], inhibition of cAMP accumulation (5-HT1AR wildtype [3]; HEK293AΔGs, wildtype, relative to serotonin): 74 ± 3%
- Emax (5-HT1AR wildtype [3]; read-out: Emax [% ± SEM], inhibition of cAMP accumulation, HEK293AΔGs, wildtype, relative to serotonin): 73%
- Ki (5-HT6R; 5-HT6, read-out: pKi (converted)): 3080 nM
- Ki (5-HT6R; 5-HT6R, HEK 293T membranes, read-out: Ki [nM ± SEM]): 3300 ± 300 nM
- EC50 (5-HT1AR Q97^2.65A; HEK293AΔGs, Q97A, read-out: EC50 [nM ± SEM], inhibition of cAMP accumulation): 8 ± 0.9 nM
- Emax (5-HT1AR Q97^2.65A): 79 ± 6%
- EC50 (5-HT1AR F112^3.28W; HEK293AΔGs, F112W, read-out: EC50 [nM ± SEM], inhibition of cAMP accumulation): 2.2 ± 0.3 nM
- Emax (5-HT1AR F112^3.28W): 69 ± 8%
- Emax (5-HT1AR wildtype [4]; HEK293-A, read-out: Emax [%±SEM], inhibition of cAMP accumulation): 86 ± 5%
- EC50 (5-HT1AR wildtype [4]; HEK293A, GloSensor, wildtype; read-out: EC50 left [nM±SEM], inhibition of cAMP accumulation): 3.4 ± 0.8 nM
- mechanical thresholds of the injured hind paw, SNI model (male C56BL/6 mice [5]; 10 mg/kg intraperitoneal): significantly increased the mechanical thresholds
- Emax (5-HT1AR Y96^2.64A [6]): < 5%
- sedative effects, accelerating rotarod (male C56BL/6 mice [7]; 10 mg/kg): did not differ from control mice injected with vehicle
- sedative effects, accelerating rotarod (male C56BL/6 mice [7]; 15 mg/kg): presumptive sedative effect
- EC50 (5-HT1AR Y96^2.64A [8]; HEK293AΔGs, Y96A, read-out: EC50 [nM ± SEM], inhibition of cAMP accumulation): 14 ± 3.5 nM
- Emax (5-HT1AR Y96^2.64A [8]): 76 ± 2%

Compound: Cc1ccc(CNCC2(F)CCN(C(=O)c3ccc(F)c(Cl)c3)CC2)nc1 [befiradol, reference compound]
- decrease of affinity when Y96^2.64 and Q97^2.65 were replaced by alanine (5-HT1AR Y96^2.64A [1]): 4.2- to 13.3 fold
- mechanical sensitivity, CFA model (male C56BL/6 mice [2]; nonsedating dose 1 mg/kg): reduced the mechanical sensitivity
- Emax (5-HT1AR wildtype [3]; read-out: Emax [% ± SEM], inhibition of cAMP accumulation): 87 ± 3%
- Ki (5-HT6R): > 50000 nM
- Emax (5-HT1AR Q97^2.65A): 91 ± 7%
- Emax (5-HT1AR F112^3.28W): 95 ± 5%
- Emax (5-HT1AR wildtype [4]; HEK293-A; read-out: Emax [%±SEM], inhibition of cAMP accumulation): 93 ± 2%
- Esat [%±SEM] (5-HT1AR wildtype [4]; HEK293A, GloSensor, wildtype): 75 ± 3%
- mechanical allodynia, neuropathic pain model (male C56BL/6 mice [5]; lower, nonsedating doses (1 mg/kg)): did not reverse the mechanical allodynia
- Emax (5-HT1AR Y96^2.64A [6]): 69 ± 5%
- sedative effects, accelerating rotarod (male C56BL/6 mice [7]; all doses >1 mg/kg): significantly reduced the ability of the mouse to continue on the rotarod
- Emax (5-HT1AR Y96^2.64A [8]): 104 ± 5%
